What is called EC50 is the concentration needed to bring the measured effect to its halfway point. What is called half-life is the time needed for the level to fall by half in the phase considered.

Data on one molecule can be found in publication PMC7162859 (Scientific Reports, 2020).

In series [1] the test system is orthotopic GBM1A tumors. In words: Pharmacodynamics: monopolar spindle formation in orthotopic GBM1A tumors. As to conditions: single ip dose 10 mg/kg each drug; 8 hours. It is filed as in vivo, NSG mice. As for the experimental part: Female NSG mice were intracerebrally injected with 500,000 GBM1A cells at coordinates X = 1.5 mm, Y = 1.5 mm and Z = 2.5 mm relative to the bregma, and tumor growth was monitored by bioluminescence imaging. After 4 weeks (tumor size of about 2 × 10^9 photons/sec), animals were randomized to receive single ip dose of microemulsion vehicle, 10 mg/kg elacridar, 10 mg/kg ispinesib, or a combination of 10 mg/kg ispinesib and 10 mg/kg elacridar (n = 8–10). At 8 hours following treatment, mice were perfused and whole brains were isolated. The samples were processed for immunofluorescence by staining for tubulin with an alpha-tubulin antibody (Cell signaling, Cat#2125) and counter staining with DAPI for visualizing nuclei. Images were scanned and counted for cells with monopolar spindles.

Another series has as its system P-gp. As to conditions: read-out: EC50 (P-gp inhibition); cited from earlier work.
Details of series [2]: method as in PMID 23334925. As to conditions: following ip dosing; cited from earlier work.
A further series has as its system Bcrp. Further details: method as in PMID 15930306. The following applies: read-out: EC50 (Bcrp inhibition); cited from earlier work.
For series [3], the system named is orthotopic GBM1A tumors. It is filed as in vivo. As to conditions: 10 mg/kg ip each drug once every 4 days for 28 days. The procedure:
Female NSG mice were intracranially implanted with 500,000 luciferase expressing GBM1A cells (transduced with lentiviral particles expressing GFP-Luciferase). After 7 days, animals were randomized into four groups and ip administered with microemulsion vehicle, 10 mg/kg elacridar, 10 mg/kg ispinesib, or a combination of 10 mg/kg ispinesib and 10 mg/kg elacridar, once every 4 days for 28 days (n = 10). The dosing schedule of once every 4 days was based on our previously publication with ispinesib. Tumor growth was monitored by bioluminescence imaging and animals were followed for survival.
The progression of tumor growth was monitored by bioluminescence imaging (BLI) using an IVIS system. Mice that underwent stereotactic injection with GFP-luciferase expressing GBM1A cells were imaged twice a week. Ten minutes prior to imaging, mice were intraperitoneally injected with d-luciferin at 75 mg/kg body weight (3 mL/kg injection volume). Animals were immobilized using 1.5% − 3.0% isoflurane provided by nose cones within the imager and were kept warm using a heated stage set at 37 °C during the imaging procedure. Following imaging for about 5 minutes, animals were removed from the IVIS chamber and monitored until they fully recovered from anesthesia.

For the molecule `COc1cc2c(cc1OC)CN(CCc1ccc(NC(=O)c3cccc4c(=O)c5cccc(OC)c5[nH]c34)cc1)CC2` [Elacridar, N-[4-[2-(6,7-dimethoxy-3,4-dihydro-1H-isoquinolin-2-yl)ethyl]phenyl]-5-methoxy-9-oxo-10H-acridine-4-carboxamide], the “monopolar spindles in tumor core (tubulin/DNA staining)” value in the series with orthotopic GBM1A tumors [1] was “normal distribution of DNA”. The EC50 is […] with P-gp and approximately 300 nM in the series with Bcrp. Also, in series [2], the half-life was 3.2 h. The “tumor doubling time (bioluminescence, single exponential fit)” value in the series with orthotopic GBM1A tumors [3] (days 7–37) is reported as 6.2 days. The median survival with orthotopic GBM1A tumors [3] (vehicle 61 days) was determined as 62 days.
